Reference: US20090216029A1, “PROCESS FOR THE PRODUCTION OF ATORVASTATIN CALCIUM IN AMORPHOUS FORM” (priority 2008, published 2009)
Counter-ions that a name gives are not always drawn.

Conditions: 25° C./60% relative humidity for 3 months
Method: • HPLC method: • Column: Kromasil C18, 250×4.6 mm, 5 μm • Mobile phase: • A: 388.5 ml of acetonitrile+31.5 ml of tetrahydrofuran++580 ml of 0.05 molar ammonium dihydrogen orthophosphate solution in water • B: 92.5 ml of acetonitrile+7.5 ml of tetrahydrofuran+300 of methanol++100 ml of 0.05 molar ammonium dihydrogen orthophosphate solution in water • Gradient:

CC(C)c1c(C(=O)Nc2ccccc2)c(-c2ccccc2)c(-c2ccc(F)cc2)n1CC[C@@H](O)C[C@@H](O)CC(=O)O (relative stereo) [amorphous atorvastatin calcium, [R—(R*,R*)]-2-(4-fluorophenyl)-β,δ-dihydroxy-5-(1-methylethyl)-3-phenyl-4-[(phenylamino)carbonyl]-1H-pyrrole-1-heptanoic acid, calcium salt (2:1)]
Total impurities and/or degradants after storage: not more than 1.0%
